Measured values published in ChEMBL document CHEMBL1201862, “PubChem BioAssay data set” (2004).
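Growth conditions: 96-well plates. Treatment: test compound, 48 hours, 5 concentrations. Analysis: linear interpolation between bracketing concentrations; unreached endpoints set to highest concentration. GI50 is the concentration that inhibits growth by half.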 Calls of active or inactive are those of the source. Cut-off read from the data, not from the text of the source: active = GI50 up to about 1.1 µM and inactive = higher.

Columns and labels:
Experiment in all cases: DTP human tumour cell line panel, 48 h
NCI-H522 = test system: NCI-H522
HL-60 = test system: HL-60
LOX IMVI = test system: LOX IMVI
HOP-18 = test system: HOP-18
SF-539 = test system: SF-539
NCI-H23 = test system: NCI-H23
SNB-19 = test system: SNB-19
DLD-1 = test system: DLD-1
SNB-78 = test system: SNB-78
LXFL 529 = test system: LXFL 529
CAKI-1 = test system: CAKI-1
A549 = test system: A549
HCT-116 = test system: HCT-116
UACC-257 = test system: UACC-257
HCT-15 = test system: HCT-15
OVCAR-8 = test system: OVCAR-8
DMS-114 = test system: DMS-114
ACHN = test system: ACHN
SF-268 = test system: SF-268
SF-295 = test system: SF-295
COLO 205 = test system: COLO 205
OVCAR-3 = test system: OVCAR-3
EKVX = test system: EKVX
NCI-H460 = test system: NCI-H460
786-0 = test system: 786-0
SK-MEL-28 = test system: SK-MEL-28
SN12C = test system: SN12C
UACC-62 = test system: UACC-62
UO-31 = test system: UO-31
CCRF-CEM = test system: CCRF-CEM
RPMI-8226 = test system: RPMI-8226
HOP-62 = test system: HOP-62
U-251 = test system: U-251
KM12 = test system: KM12
Malme-3M = test system: Malme-3M
OVCAR-5 = test system: OVCAR-5
A498 = test system: A498
SNB-75 = test system: SNB-75
SK-OV-3 = test system: SK-OV-3
TK-10 = test system: TK-10
SK-MEL-5 = test system: SK-MEL-5
HCC 2998 = test system: HCC 2998
KM-20L2 = test system: KM-20L2
M14 = test system: M14
OVCAR-4 = test system: OVCAR-4
M19-MEL = test system: M19-MEL
SR = test system: SR
SW-620 = test system: SW-620
DMS-273 = test system: DMS-273
HOP-92 = test system: HOP-92
SK-MEL-2 = test system: SK-MEL-2
RXF 393 = test system: RXF 393
MOLT-4 = test system: MOLT-4
NCI-H226 = test system: NCI-H226
HT-29 = test system: HT-29
IGROV-1 = test system: IGROV-1
K562 = test system: K562

Measured: GI50

CCC(=O)N/N=C(\C=C\c1cccc(O)c1)c1sc(Nc2ccc(C)cc2[N+](=O)[O-])nc1C
inactive: NCI-H522 45.8 µM | HL-60 43.4 µM | LOX IMVI 58.6 µM | HOP-18 > 100 µM | SF-539 32.7 µM | NCI-H23 2.22 µM | SNB-19 > 100 µM | DLD-1 43.6 µM | SNB-78 > 100 µM | LXFL 529 > 100 µM | CAKI-1 > 100 µM | A549 > 100 µM | HCT-116 > 100 µM | UACC-257 > 100 µM | OVCAR-8 71.3 µM | DMS-114 > 100 µM | ACHN > 100 µM | SF-268 > 100 µM | SF-295 48.4 µM | COLO 205 > 100 µM | OVCAR-3 71.1 µM | EKVX > 100 µM | NCI-H460 > 100 µM | 786-0 > 100 µM | SK-MEL-28 > 100 µM | SN12C > 100 µM | UACC-62 > 100 µM | UO-31 > 100 µM | CCRF-CEM 99.1 µM | RPMI-8226 > 100 µM | HOP-62 > 100 µM | U-251 > 100 µM | KM12 > 100 µM | Malme-3M > 100 µM | OVCAR-5 > 100 µM | A498 > 100 µM | SNB-75 14.9 µM | SK-OV-3 > 100 µM | TK-10 > 100 µM | SK-MEL-5 > 100 µM | HCC 2998 > 100 µM | KM-20L2 > 100 µM | M14 > 100 µM | OVCAR-4 49 µM | M19-MEL > 100 µM | SR 73.8 µM | SW-620 > 100 µM | DMS-273 > 100 µM | HOP-92 13.7 µM | SK-MEL-2 > 100 µM | RXF 393 10.8 µM | MOLT-4 > 100 µM | NCI-H226 > 100 µM | HT-29 18.6 µM | IGROV-1 > 100 µM | K562 > 100 µM
81.8 µM: HCT-15

Cc1c(O)c(O)cc[n+]1C1OC(CO)C(O)C1O (stereo not given)
inactive: NCI-H522 > 100 µM | LOX IMVI > 100 µM | HOP-18 > 100 µM | NCI-H23 > 100 µM | SNB-19 > 100 µM | DLD-1 > 100 µM | SNB-78 > 100 µM | LXFL 529 33.1 µM | CAKI-1 > 100 µM | A549 > 100 µM | HCT-116 > 100 µM | UACC-257 > 100 µM | OVCAR-8 > 100 µM | ACHN > 100 µM | SF-268 > 100 µM | COLO 205 > 100 µM | EKVX > 100 µM | NCI-H460 > 100 µM | 786-0 > 100 µM | SK-MEL-28 > 100 µM | SN12C > 100 µM | UACC-62 > 100 µM | UO-31 > 100 µM | CCRF-CEM > 100 µM | RPMI-8226 > 100 µM | U-251 > 100 µM | KM12 > 100 µM | Malme-3M > 100 µM | OVCAR-5 > 100 µM | A498 > 100 µM | SNB-75 > 100 µM | SK-OV-3 > 100 µM | TK-10 > 100 µM | HCC 2998 > 100 µM | KM-20L2 > 100 µM | M14 > 100 µM | OVCAR-4 > 100 µM | M19-MEL > 100 µM | SW-620 > 100 µM | DMS-273 > 100 µM | HOP-92 > 100 µM | SK-MEL-2 > 100 µM | RXF 393 > 100 µM | NCI-H226 > 100 µM | HT-29 > 100 µM | IGROV-1 > 100 µM | K562 > 100 µM
> 100 µM: HCT-15
